Experimental data published in patent US20080287915A1, “Tissue engineering system with scleral lens” (Boston Foundation for Sight, priority 2007, published 2008).
Like-named read-outs stand apart in the source and are kept apart here.

Key:
[1] = test system: corneal neovascularization; conditions: solution of 1% AVASTIN and 0.01% BAK, one drop, four times per day for at least thirty days, topical; cited from earlier work
[2] = test system: corneal neovascularization; experiment: AVASTIN in the scleral lens drug delivery system to treat corneal neovascularization; type: in vivo
Excerpt: This study using AVASTIN® off-label, topically, to treat corneal neovascularization was repeated using the scleral lens drug delivery system. […] This therapeutic effect was achieved without BAK. Instead, the expanded pre-corneal tear film of the scleral lens drug delivery system provided adequate bioavailability of the drug without exposing the cornea to BAK.

In the case of bevacizumab [AVASTIN®], the “therapeutic effect on corneal neovascularization” value [1] is listed as “Therapeutic effect was reported”, the “therapeutic effect on corneal neovascularization” value ([2]; one drop of 1% AVASTIN added to expanded pre-corneal tear film of artificial tears in a scleral lens twice per day, without BAK) is listed as “achieved a therapeutic effect by thirty days with continued benefit over the subsequent sixty days” and the “regression of corneal neovascularization (clinical photos, FIG. 5)” value ([2]; scleral lens drug delivery system) is listed as “regression of corneal neovascularization”.
